ChEMBL document CHEMBL6071187, “Design, Synthesis, and Biological Evaluation of Selective TBL1X Degraders” (ACS Med Chem Lett, 2024)

Experiments:
[1] = molecular target: T1, Protein cereblon/F-box-like/WD repeat-containing protein TBL1X (Homo sapiens) (UniProt Q96SW2+O60907); assay: PROTAC activity at CRBN/TBL1X in human Ri-1 cells assessed as […] TBL1X level at 0.04 uM incubated for 6 hrs by Western blotting analysis (reference value: 1); format: cell-based
[2] = molecular target: T1, Protein cereblon/F-box-like/WD repeat-containing protein TBL1X (Homo sapiens); assay: PROTAC activity at CRBN/TBL1X in human Ri-1 cells assessed as […] TBL1X level at 0.2 uM incubated for 6 hrs by Western blotting analysis (reference value: 1); format: cell-based
[3] = molecular target: T1, Protein cereblon/F-box-like/WD repeat-containing protein TBL1X (Homo sapiens); assay: PROTAC activity at CRBN/TBL1X in human Ri-1 cells assessed as […] TBL1X level at 5 uM incubated for 6 hrs by Western blotting analysis (reference value: 1); format: cell-based
[4] = molecular target: T1, Protein cereblon/F-box-like/WD repeat-containing protein TBL1X (Homo sapiens); assay: PROTAC activity at CRBN/TBL1X in human Ri-1 cells assessed as […] TBL1X level at 1 uM incubated for 6 hrs by Western blotting analysis (reference value: 1); format: cell-based
[5] = molecular target: T1, Protein cereblon/F-box-like/WD repeat-containing protein TBL1X (Homo sapiens); assay: PROTAC activity at CRBN/TBL1X in human Ri-1 cells assessed as TBL1X level relative to control at 0.008 uM incubated for 6 hrs by Western blotting analysis (reference value: 1); format: cell-based
[6] = system: Pfeiffer; assay: Cytotoxicity against human Pfeiffer cells assessed as reduction in cell viability incubated for 72 hrs by MTS assay; format: functional, cell-based
[7] = system: Granta-519; assay: Cytotoxicity against human Granta-519 cells assessed as reduction in cell viability incubated for 72 hrs by MTS assay; format: functional, cell-based; conditions: Granta-519, 72 h
[8] = Cytotoxicity against human Ri-1 cells assessed as reduction in cell viability incubated for 72 hrs by MTS assay; format: functional, cell-based; conditions: Ri-1, 72 h
[9] = molecular target: T1, Protein cereblon/F-box-like/WD repeat-containing protein TBL1X (Homo sapiens); assay: PROTAC activity at CRBN/TBL1X in human Ri-1 cells assessed as decrease in TBL1X level incubated for 6 hrs by Western blotting analysis; format: cell-based; conditions: dose 0.008-5 µM
[10] = molecular target: T1, Protein cereblon/F-box-like/WD repeat-containing protein TBL1X (Homo sapiens); assay: PROTAC activity at CRBN/TBL1X in human Ri-1 cells assessed as […] TBL1X level at 0.2 uM incubated for 6 hrs in presence of tega-vivint by Western blotting analysis (reference value: 1); format: cell-based
[11] = molecular target: T1, Protein cereblon/F-box-like/WD repeat-containing protein TBL1X (Homo sapiens); assay: PROTAC activity at CRBN/TBL1X in human Ri-1 cells assessed as […] TBL1X level at 0.2 uM incubated for 6 hrs in presence of MG-132 by Western blotting analysis (reference value: 1); format: cell-based
[12] = molecular target: T1, Protein cereblon/F-box-like/WD repeat-containing protein TBL1X (Homo sapiens); assay: PROTAC activity at CRBN/TBL1X in human Ri-1 cells assessed as […] TBL1X level at 0.2 uM incubated for 6 hrs in presence of pomalidomide by Western blotting analysis (reference value: 1); format: cell-based

T1 sequence (O60907 whole entry, looked up): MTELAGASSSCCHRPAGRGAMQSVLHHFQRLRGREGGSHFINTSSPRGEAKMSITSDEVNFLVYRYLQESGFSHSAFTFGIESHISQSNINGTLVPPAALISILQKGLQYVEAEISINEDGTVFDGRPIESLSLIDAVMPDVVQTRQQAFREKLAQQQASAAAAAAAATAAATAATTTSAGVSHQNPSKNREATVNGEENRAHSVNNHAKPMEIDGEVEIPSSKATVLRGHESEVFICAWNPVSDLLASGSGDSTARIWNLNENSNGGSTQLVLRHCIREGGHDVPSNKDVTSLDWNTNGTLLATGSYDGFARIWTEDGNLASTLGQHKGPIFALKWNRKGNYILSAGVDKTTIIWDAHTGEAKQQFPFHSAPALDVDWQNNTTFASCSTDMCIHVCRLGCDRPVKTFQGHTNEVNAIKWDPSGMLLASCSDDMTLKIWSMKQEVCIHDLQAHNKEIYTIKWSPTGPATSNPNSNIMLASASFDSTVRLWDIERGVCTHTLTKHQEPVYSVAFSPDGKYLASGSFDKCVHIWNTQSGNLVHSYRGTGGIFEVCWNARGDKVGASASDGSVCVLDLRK
T1 sequence (Q96SW2 whole entry, looked up): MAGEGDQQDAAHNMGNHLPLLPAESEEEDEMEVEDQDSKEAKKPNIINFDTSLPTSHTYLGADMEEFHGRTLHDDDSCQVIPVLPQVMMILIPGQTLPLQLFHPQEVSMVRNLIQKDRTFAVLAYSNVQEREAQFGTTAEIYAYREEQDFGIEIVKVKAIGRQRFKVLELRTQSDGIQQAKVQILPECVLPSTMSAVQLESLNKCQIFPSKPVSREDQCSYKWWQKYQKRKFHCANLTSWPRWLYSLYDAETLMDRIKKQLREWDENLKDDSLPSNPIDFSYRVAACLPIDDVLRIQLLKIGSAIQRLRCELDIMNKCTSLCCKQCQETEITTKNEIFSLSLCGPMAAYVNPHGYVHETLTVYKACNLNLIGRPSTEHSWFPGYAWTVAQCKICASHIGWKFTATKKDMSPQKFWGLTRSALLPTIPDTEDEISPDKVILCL

Row | Compound | fold change (FC) [1] | fold change (FC) [2] | fold change (FC) [3] | fold change (FC) [4] | fold change (FC) [5] | IC50 [6] [nM] | IC50 [7] [nM] | IC50 [8] [nM] | Activity [9] | fold change (FC) [10] | fold change (FC) [11] | fold change (FC) [12]
1 | CC1CC(C)CN(S(=O)(=O)c2ccc3c(c2)/C(=N\O)c2cc(S(=O)(=O)N4CCN(C(=O)CCOCCOCCNc5cccc6c5C(=O)N(C5CCC(=O)NC5=O)C6=O)CC4)ccc2/C3=N\O)C1 (configuration not stated) | 0.99 | 0.94 | 0.97 | 1.06 | 1.07 | > 20000 | > 20000 | > 20000 | – | – | – | –
2 | CC1CC(C)CN(S(=O)(=O)c2ccc3c(c2)C(=NO)c2cc(S(=O)(=O)N4CC(C)CC(C)C4)ccc2C3=NOCCCNC(=O)CCNc2cccc3c2C(=O)N(C2CCC(=O)NC2=O)C3=O)C1 (configuration not stated) | 0.56 | 0.41 | 0.54 | 0.5 | 0.97 | 189 | 323 | 651 | Dose-Dependent Effect | – | – | –
3 | CC1CC(C)CN(S(=O)(=O)c2ccc3c(c2)C(=NO)c2cc(S(=O)(=O)N4CC(C)CC(C)C4)ccc2C3=NOCCCNC(=O)CCCCCCNc2cccc3c2C(=O)N(C2CCC(=O)NC2=O)C3=O)C1 (configuration not stated) | 0.74 | 0.61 | 0.44 | 0.74 | 0.8 | 355 | 530 | 929 | Dose-Dependent Effect | – | – | –
4 | CC1CC(C)CN(S(=O)(=O)c2ccc3c(c2)C(=NO)c2cc(S(=O)(=O)N4CC(C)CC(C)C4)ccc2C3=NOCCCNC(=O)CCOCCNc2cccc3c2C(=O)N(C2CCC(=O)NC2=O)C3=O)C1 (configuration not stated) | 0.47 | 0.51 | 0.48 | 0.43 | 0.4 | 554 | 1040 | 1350 | – | – | – | –
5 | CC1CC(C)CN(S(=O)(=O)c2ccc3c(c2)C(=NO)c2cc(S(=O)(=O)N4CC(C)CC(C)C4)ccc2C3=NOCCCNC(=O)CCOCCOCCNc2cccc3c2C(=O)N(C2CCC(=O)NC2=O)C3=O)C1 (configuration not stated) | 0.35 | 0.63 | 1.03 | 0.64 | 0.37 | 1880 | > 20000 | > 20000 | – | – | – | –
6 | CC1CC(C)CN(S(=O)(=O)c2ccc3c(c2)/C(=N/O)c2cc(S(=O)(=O)N4CCN(C(=O)CCCCCCCCCCNc5cccc6c5C(=O)N(C5CCC(=O)NC5=O)C6=O)CC4)ccc2/C3=N\O)C1 (configuration not stated) | 1.04 | 0.99 | 1.08 | 0.92 | 0.98 | 2500 | 1160 | 1160 | – | – | – | –
7 | CC1CC(C)CN(S(=O)(=O)c2ccc3c(c2)/C(=N/O)c2cc(S(=O)(=O)N4CCN(C(=O)CCCCNc5cccc6c5C(=O)N(C5CCC(=O)NC5=O)C6=O)CC4)ccc2/C3=N\O)C1 (configuration not stated) | 0.94 | 1.02 | 0.6 | 0.91 | 0.9 | 647 | 496 | 560 | – | – | – | –
8 | C[C@@H]1C[C@H](C)CN(S(=O)(=O)c2ccc3c(c2)C(=NO)c2cc(S(=O)(=O)N4C[C@H](C)C[C@H](C)C4)ccc2C3=NO)C1 | – | – | – | – | – | 175 | 94.1 | 86 | – | – | – | –
9 | CC1CC(C)CN(S(=O)(=O)c2ccc3c(c2)C(=NO)c2cc(S(=O)(=O)N4CC(C)CC(C)C4)ccc2C3=NOCCCNC(=O)CCOCCOCCOCCNc2cccc3c2C(=O)N(C2CCC(=O)NC2=O)C3=O)C1 (configuration not stated) | 0.49 | 0.46 | 0.58 | 0.59 | 0.6 | > 20000 | > 20000 | > 20000 | – | – | – | –
10 | CC1CC(C)CN(S(=O)(=O)c2ccc3c(c2)C(=NO)c2cc(S(=O)(=O)N4CC(C)CC(C)C4)ccc2C3=NOCCCNC(=O)CCCCCCCCCCNc2cccc3c2C(=O)N(C2CCC(=O)NC2=O)C3=O)C1 (configuration not stated) | 0.43 | 0.44 | 0.43 | 0.18 | 0.64 | > 20000 | > 20000 | > 20000 | Dose-Dependent Effect | – | – | –
11 | CC1CC(C)CN(S(=O)(=O)c2ccc3c(c2)/C(=N/O)c2cc(S(=O)(=O)N4CCN(C(=O)CCNc5cccc6c5C(=O)N(C5CCC(=O)NC5=O)C6=O)CC4)ccc2/C3=N\O)C1 (configuration not stated) | 1.3 | 1.28 | 1.34 | 1.23 | 1 | 564 | 399 | 797 | – | – | – | –
12 | CC1CC(C)CN(S(=O)(=O)c2ccc3c(c2)/C(=N/O)c2cc(S(=O)(=O)N4CCN(C(=O)CCOCCNc5cccc6c5C(=O)N(C5CCC(=O)NC5=O)C6=O)CC4)ccc2/C3=N\O)C1 (configuration not stated) | 1.11 | 1.59 | 0.79 | 1.15 | 0.91 | > 20000 | > 20000 | > 20000 | – | – | – | –
13 | CC1CC(C)CN(S(=O)(=O)c2ccc3c(c2)/C(=N/O)c2cc(S(=O)(=O)N4CCN(C(=O)CCCCCCNc5cccc6c5C(=O)N(C5CCC(=O)NC5=O)C6=O)CC4)ccc2/C3=N\O)C1 (configuration not stated) | 1.03 | 1.16 | 1.51 | 1.36 | 0.91 | 343 | 439 | 605 | – | – | – | –
14 | CC1CC(C)CN(S(=O)(=O)c2ccc3c(c2)/C(=N\O)c2cc(S(=O)(=O)N4CCN(C(=O)CCOCCOCCOCCNc5cccc6c5C(=O)N(C5CCC(=O)NC5=O)C6=O)CC4)ccc2/C3=N\O)C1 (configuration not stated) | 1.02 | 0.92 | 0.97 | 0.79 | 0.9 | > 20000 | > 20000 | > 20000 | – | – | – | –
15 | CC1CC(C)CN(S(=O)(=O)c2ccc3c(c2)C(=NO)c2cc(S(=O)(=O)N4CC(C)CC(C)C4)ccc2C3=NOCCCNC(=O)CCCCNc2cccc3c2C(=O)N(C2CCC(=O)NC2=O)C3=O)C1 (configuration not stated) | 0.27 | 0.53 | 1.46 | 0.61 | 0.4 | 398 | 523 | 795 | Dose-Dependent Effect | 0.87 | 0.92 | 0.82
